Usually EC50 stands for the concentration at which the effect is half-maximal. Read a high EC50 as a less potent agent.

In brackets after ≈: the same amount, converted by molar mass.

The test system of data set [1] is cypris larvae of the barnacle Amphibalanus amphitrite. The experiment in a line: Antifouling (settlement inhibition) assay against barnacle cypris larvae. Particulars: 96 h; for EC50: Amphibalanus amphitrite; for EC50 / Antifouling activity EC50: cypris larvae, 24‐well plates, 25°C, dark, concentration reducing larval settlement to 50% of negative control; for Antifouling (settlement‐inhibitory) activity in words: up to 50 µg/mL. Format: in vivo. The protocol:
First, the biological activities of xylemin (1) and its related compounds were assayed against the cypris larvae of the barnacle A. amphitrite. The larvae were treated using 24‐well polystyrene plates with 6 different concentrations of the compounds at 25°C in the dark for 96 h.
Evaluation of the biological activity and statistical analysis were conducted according to the previous work. Adult barnacles of A. amphitrite attached to stones were collected in Kobe, Japan, in 2023 and maintained in aquaria. Nauplii released from adults were cultured in filtered seawater (FSW) with penicillin/streptomycin (FUJIFILM Wako Pure Chemical Corp., Osaka, Japan) and fed Chaetoceros calcitrans at 25°C, under a 12 h light/12 h dark cycle. The larvae reached the cypris stage after 5–6 days. Cyprids were collected, rinsed with FSW, and stored in the dark at 5°C for 3–4 days until use. The effects of the compounds on barnacle cyprids were evaluated using 24‐well polystyrene plates (Corning Inc., Corning, NY, USA). Each compound was dissolved in MeOH, and the solution was diluted with the same solvent to concentrations of 0.01, 0.03, 0.1, 0.3, 1.0, and 5.0 µg/µL. Aliquots (10 µL) of the solutions were added to the wells of the polystyrene plates and air‐dried. Each well was charged with approximately ten cypris larvae and FSW (1.0 mL). The plates were incubated at 25°C in the dark for 96 h. […] Each concentration was tested in three wells, and the experiment was performed three times with different batches of larvae. The assay was conducted using CuSO4 (0.01, 0.03, 0.1, 0.3, 1.0, 3.0, and 10 µg) as a positive control. An assay without any compound was used as a negative control. Settlement inhibition was calculated based on negative control settlement. Antifouling activity (EC50) and toxicity (LC50) were calculated using probit analyses. EC50 indicates the concentration that reduces the larval settlement to 50% of the negative control. LC50 indicates the concentration that causes 50% mortality.

The subject of data set [2] is barnacle A. amphitrite. The arrangement: method as in ref 30 = [30]; 30 J. A. Ponasik , S. Conova , D. Kinghorn , W. A. Kinney , D. Rittschof , and B. Ganem , “ Pseudoceratidine, a Marine Natural Product with Antifouling Activity: Synthetic and Biological Studies ,” Te. Particulars: cited from earlier work.
The subject of data set [3] is thermospermine synthase ACAULIS5 (ACL5). Details: method as in ref 25 = [25]; 25 H. Takamura , H. Motose , T. Otsu , et al., “ Chemical Synthesis and Biological Effect on Xylem Formation of Xylemin and Its Analogues ,” European Journal of Organic Chemistry 2020 ( 2020 ): 2745 –. Particulars: cited from earlier work.
For data set [4], the system named is xylem formation. Details: method as in PMID 26879262. The settings on record: cited from earlier work.
Data set [5] has as its system zooplankton Artenia larvae. Details: method as in PMID 27919420. The settings on record: cited from earlier work.

Regarding `NCCCCNC1CCCCCC1` [Compound 6, N‐(4‐aminobutyl)cycloheptylamine], in data set [1], the EC50 is more than 50 µg/mL and the “Antifouling (settlement‐inhibitory) activity in words” value is on record as “lacked antifouling activity”.
With `O=C(O)c1cc(Br)c(Br)[nH]1` [4,5‐dibromopyrrole‐2‐carboxylic acid], in data set [2], the “Antifouling activity EC50” value is on record as 15 µg/mL.
Take `NCCCCNC1CCCC1` [N‐(4‐aminobutyl)cyclopentylamine]: the “Expression of ACL5” value in data set [3] is “promoted the expression”. The “Xylem formation / differentiation” value in data set [4] is “enhanced xylem formation”.
`CN(C)C(=O)Nc1ccc(Cl)c(Cl)c1` [Diuron]: in data set [5], the “LC50 (50% lethal concentration)” value was 30.6 µg/mL (≈ 131 µM).
In the case of `CCCNCCCCN` [Compound 1, N‐(4‐aminobutyl)propylamine], the “Expression of ACL5” value in data set [3] is recorded as “promoted the expression”. For the same molecule, the “Xylem formation / differentiation” value in data set [4] is listed as “enhanced xylem formation”. The EC50 in data set [1] is 4.25 µg/mL (≈ 32.6 µM).
`NCCCNCCCCNCCCN` [spermine]: the EC50 in data set [1] was more than 50 µg/mL.
With `NCCCCNC1CCCCC1` [Compound 5, N‐(4‐aminobutyl)cyclohexylamine], in data set [1], the EC50 is more than 50 µg/mL and the “Antifouling (settlement‐inhibitory) activity in words” value is on record as “lacked antifouling activity”.
On to `NCCCNCCCCNCCCN` [Compound 9, spermine, reference compound], for which, in data set [1], the “Antifouling activity EC50” value is more than 50 µg/mL.
Regarding `NCCCCNCCCN` [spermidine], the EC50 in data set [1] was more than 50 µg/mL.
Same read-out and setting: for `CCC(CC)NCCCCN` [Compound 3, N‐(4‐aminobutyl)‐1‐ethylpropylamine] the value was more than 50 µg/mL.
Regarding `NCCCCNCCCNCCCN` [thermospermine], the EC50 in data set [1] is more than 50 µg/mL.
`NCCCCNCCCN` [Compound 8, spermidine, reference compound]: in data set [1], the “Antifouling activity EC50” value was more than 50 µg/mL and the “Antifouling (settlement‐inhibitory) activity in words” value was “did not exhibit antifouling activity”.
Regarding `NCCCCNCCCNCCCN` [Compound 10, thermospermine, reference compound], in data set [1], the “Antifouling activity EC50” value is more than 50 µg/mL.
For the molecule `NCCCCN` [Compound 7, putrescine, reference compound], in data set [1], the EC50 was more than 50 µg/mL and the “Antifouling (settlement‐inhibitory) activity in words” value is “non‐antifouling activity”.
Take `NCCCCNC1CCCC1` [Compound 4, N‐(4‐aminobutyl)cyclopentylamine]: in data set [4], the “Xylem formation / differentiation” value is reported as “significant activity in promoting xylem differentiation”. In addition, in data set [1], the EC50 is more than 50 µg/mL and the “Antifouling (settlement‐inhibitory) activity in words” value is on record as “no inhibitory activity”.
`CCCNCCCCNC(=O)OC(C)(C)C` [Compound 2]: in data set [1], the EC50 is 6.11 µg/mL (≈ 26.5 µM).

The record behind these values is paper PMC12004904, “Antifouling Activity of Xylemin, Its Structural Analogs, and Related Polyamines” (Chemistry & Biodiversity, 2025).
